# Reference: paper PMC2120305 (The Journal of Cell Biology, 1994)
# “And” between values parts separate entries of the source, which are not always exact repeats. Identical values can stand only once. Like-named read-outs stand apart in the source and are kept apart here.
# Key:
# [1] = test system: release of vesicles from the TGN of PC12 cells; conditions: cited from earlier work
# [2] = test system: glycosylation of VSV-g protein; type: biochemical, CHO cells
# [3] = test system: Golgi membranes; test: Membrane integrity: retention of a preformed UDP-[3H]-GlcNAc gradient; type: biochemical, CHO cells; conditions: Fig. 5 A; MAS 3.3 µM, ARFp13 43 µM, NEM 1 mM, SDS 50 µM; 10 min with inhibitors
# [4] = test system: p200 binding to rat liver Golgi membranes; conditions: 100 µM MAS; cited from earlier work
# [5] = test system: beta-COP binding to isolated Golgi membranes; conditions: 25 µM MAS; cited from earlier work
# [6] = test system: glycosylation of endogenous VSV-g protein; type: biochemical, CHO cells
# [7] = test system: in vitro Golgi transport; type: biochemical, CHO cells
molecule,measurement,setting,value
Pertussis toxin,Stimulation of TGN vesicle release after pertussis toxin treatment,[1],1.6- 1.7 fold
Mastoparan,Glycosylation of VSV-g protein after its delivery to the acceptor compartment,[2],subse- quent glycosylation is inhibited
same,IC50,"[2]; read-out: IC50, peptide added before glycosylation",2800 nM and 1900 nM
same,Inhibition of release of vesicles from the TGN,[1],~30%
same,Integrity of the membranes,[3],near complete loss of membrane integrity
same,Stimulation of p200 binding to rat liver Golgi membranes in vitro,[4],more than sevenfold
same,Increase in the amount of beta-COP bound to isolated Golgi membranes,[5],10 fold
same,Effect on glycosylation of VSV-g protein,[6],similarly inhibitory effect
same,IC50 with normal versus ARF-depleted cytosol,[7],the same
same,IC50,[7]; read-out: IC50 for inhibition of in vitro Golgi transport,0.75 µM
same,IC50,"[7]; read-out: IC50 in vitro transport, addition of BFA 0 µM",2.2 µM
same,IC50,"[7]; read-out: IC50 in vitro transport, addition of BFA 200 µM",2 µM
same,IC50,"[7]; read-out: IC50 in vitro transport, addition of GTP 0 µM",1.4 µM
same,IC50,"[7]; read-out: IC50 in vitro transport, addition of GTP 50 µM",1.3 µM
same,IC50,"[7]; read-out: IC50 in vitro transport, mock-treated membranes",1.3 µM
same,IC50,"[7]; read-out: IC50 in vitro transport, pertussis toxin treated membranes",1.3 µM
CCCCCCCCCCCCOS(=O)(=O)[O-].[Na+] [SDS],Integrity of the membranes,[3],only partially compromised
same,Effect on glycosylation of VSV-g protein,[6],similarly inhibitory effect
CCN1C(=O)C=CC1=O [NEM],Glycosylation of VSV-g protein after its delivery to the acceptor compartment,[2],subse- quent glycosylation is inhibited
same,Integrity of the membranes,[3],near complete loss of membrane integrity
same,Effect on glycosylation of VSV-g protein,[6],similarly inhibitory effect
